Reference: PubChem BioAssay AID2060327 (Molecular Pharmacology Branch, DTP, NCI, 2025)
pIC50: −log10 of the molar value.

System: PC-3 multi-cell spheroids, viability
Assay: Anticancer human tumor PC-3 cell line growth inhibition [IpAb];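 note: spheroids exposed to compounds for 7 days before readout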;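 for viability, T/C: 100% = DMSO vehicle control wells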
Conditions: for pIC50: curve of first compound; for viability, T/C: stronger effect = lower value
Procedure, shortened: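 Combinations with ipatasertib or abemaciclib were tested on tumour spheroids holding HUVEC (25%) and MSC (15%) alongside 60% malignant cells. Top concentration was at or near clinical Cmax (10 microM if undefined), descending in half-log steps.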

[1] = second compound 0.01 µM, first compound 0.0316 µM
[2] = second compound 0.01 µM, first compound 0.1 µM
[3] = second compound 0.01 µM, first compound 0.316 µM
[4] = second compound 0.01 µM, first compound 1 µM
[5] = second compound 0.01 µM, first compound 3.16 µM
[6] = second compound 0.01 µM, first compound 10 µM
[7] = second compound 0.0316 µM, first compound 0.0316 µM
[8] = second compound 0.0316 µM, first compound 0.1 µM
[9] = second compound 0.0316 µM, first compound 0.316 µM
[10] = second compound 0.0316 µM, first compound 1 µM
[11] = second compound 0.0316 µM, first compound 3.16 µM
[12] = second compound 0.0316 µM, first compound 10 µM
[13] = second compound 0.1 µM, first compound 0.0316 µM
[14] = second compound 0.1 µM, first compound 0.1 µM
[15] = second compound 0.1 µM, first compound 0.316 µM
[16] = second compound 0.1 µM, first compound 1 µM
[17] = second compound 0.1 µM, first compound 3.16 µM
[18] = second compound 0.1 µM, first compound 10 µM
[19] = second compound 0.316 µM, first compound 0.0316 µM
[20] = second compound 0.316 µM, first compound 0.1 µM
[21] = second compound 0.316 µM, first compound 0.316 µM
[22] = second compound 0.316 µM, first compound 1 µM
[23] = second compound 0.316 µM, first compound 3.16 µM
[24] = second compound 0.316 µM, first compound 10 µM
[25] = second compound 1 µM, first compound 0.0316 µM
[26] = second compound 1 µM, first compound 0.1 µM
[27] = second compound 1 µM, first compound 0.316 µM
[28] = second compound 1 µM, first compound 1 µM
[29] = second compound 1 µM, first compound 3.16 µM
[30] = second compound 1 µM, first compound 10 µM
[31] = second compound 0.01 µM, first compound 0.00949 µM
[32] = second compound 0.01 µM, first compound 0.03 µM
[33] = second compound 0.01 µM, first compound 0.0949 µM
[34] = second compound 0.01 µM, first compound 0.3 µM
[35] = second compound 0.0316 µM, first compound 0.00949 µM
[36] = second compound 0.0316 µM, first compound 0.03 µM
[37] = second compound 0.0316 µM, first compound 0.0949 µM
[38] = second compound 0.0316 µM, first compound 0.3 µM
[39] = second compound 0.1 µM, first compound 0.00949 µM
[40] = second compound 0.1 µM, first compound 0.03 µM
[41] = second compound 0.1 µM, first compound 0.0949 µM
[42] = second compound 0.1 µM, first compound 0.3 µM
[43] = second compound 0.316 µM, first compound 0.00949 µM
[44] = second compound 0.316 µM, first compound 0.03 µM
[45] = second compound 0.316 µM, first compound 0.0949 µM
[46] = second compound 0.316 µM, first compound 0.3 µM
[47] = second compound 1 µM, first compound 0.00949 µM
[48] = second compound 1 µM, first compound 0.03 µM
[49] = second compound 1 µM, first compound 0.0949 µM
[50] = second compound 1 µM, first compound 0.3 µM

For C=CC(=O)N1CCN(c2nc(=O)n(-c3c(C)ccnc3C(C)C)c3nc(-c4c(O)cccc4F)c(F)cc23)C(C)C1 (stereo not given) + CCN1CCN(Cc2ccc(Nc3ncc(F)c(-c4cc(F)c5nc(C)n(C(C)C)c5c4)n3)nc2)CC1, the pIC50 (second compound 0.01 µM) was < 5.00, the pIC50 (second compound 0.0316 µM) was < 5.00 and the pIC50 (second compound 0.1 µM) was < 5.00. For the same molecule, the pIC50 (second compound 0.316 µM) was < 5.00, the pIC50 (second compound 1 µM) was 5.28 and the viability, T/C [1] was 84.3%. It also gave a viability, T/C [2] of 96%, a viability, T/C [3] of 98.6% and a viability, T/C [4] of 101%. It also gave a viability, T/C [5] of 114%, a viability, T/C [6] of 116% and a viability, T/C [7] of 51.8%. The viability, T/C [8] was 57.3%, the viability, T/C [9] was 69.8% and the viability, T/C [10] was 79.2%. For the same molecule, the viability, T/C [11] was 107%, the viability, T/C [12] was 78.5% and the viability, T/C [13] was 58.1%. It also gave a viability, T/C [14] of 60.2%, a viability, T/C [15] of 60.4% and a viability, T/C [16] of 54.7%. It also gave a viability, T/C [17] of 64.2%, a viability, T/C [18] of 74.8% and a viability, T/C [19] of 65.2%. The viability, T/C [20] was 67.8%, the viability, T/C [21] was 68.4% and the viability, T/C [22] was 70.6%. It also gave a viability, T/C [23] of 61%, a viability, T/C [24] of 48.2% and a viability, T/C [25] of 56.3%. For the same molecule, the viability, T/C [26] was 65.5%, the viability, T/C [27] was 60.5% and the viability, T/C [28] was 59.1%. For the same molecule, the viability, T/C [29] was 60.3% and the viability, T/C [30] was 37.5%.
In the case of CC(=O)c1c(C)c2cnc(Nc3ccc(N4CCNCC4)cn3)nc2n(C2CCCC2)c1=O + CCN1CCN(Cc2ccc(Nc3ncc(F)c(-c4cc(F)c5nc(C)n(C(C)C)c5c4)n3)nc2)CC1, the pIC50 (second compound 0.01 µM) was < 6.52, the pIC50 (second compound 0.0316 µM) was < 6.52 and the pIC50 (second compound 0.1 µM) was < 6.52. For the same molecule, the pIC50 (second compound 0.316 µM) was < 6.52, the pIC50 (second compound 1 µM) was < 6.52 and the viability, T/C (second compound 0.01 µM, first compound 0.000949 µM) was 79.2%. For the same molecule, the viability, T/C (second compound 0.01 µM, first compound 0.003 µM) was 68.6%, the viability, T/C [31] was 70.7% and the viability, T/C [32] was 61.7%. For the same molecule, the viability, T/C [33] was 62%, the viability, T/C [34] was 56.6% and the viability, T/C (second compound 0.0316 µM, first compound 0.000949 µM) was 49.9%. For the same molecule, the viability, T/C (second compound 0.0316 µM, first compound 0.003 µM) was 57.3%, the viability, T/C [35] was 53.7% and the viability, T/C [36] was 53.7%. It also gave a viability, T/C [37] of 56.4%, a viability, T/C [38] of 59.8% and a viability, T/C (second compound 0.1 µM, first compound 0.000949 µM) of 53.5%. It also gave a viability, T/C (second compound 0.1 µM, first compound 0.003 µM) of 53.9%, a viability, T/C [39] of 52.9% and a viability, T/C [40] of 53.7%. The viability, T/C [41] was 57.9%, the viability, T/C [42] was 55.4% and the viability, T/C (second compound 0.316 µM, first compound 0.000949 µM) was 60%. For the same molecule, the viability, T/C (second compound 0.316 µM, first compound 0.003 µM) was 56.8%, the viability, T/C [43] was 63.1% and the viability, T/C [44] was 64.9%. It also gave a viability, T/C [45] of 65.5%, a viability, T/C [46] of 60.9% and a viability, T/C (second compound 1 µM, first compound 0.000949 µM) of 58.1%. The viability, T/C (second compound 1 µM, first compound 0.003 µM) was 60.2%, the viability, T/C [47] was 57.3% and the viability, T/C [48] was 57.5%. For the same molecule, the viability, T/C [49] was 51.2% and the viability, T/C [50] was 55.1%.
Work on CC(C)(C)c1cnc(CSc2cnc(NC(=O)C3CCNCC3)s2)o1 + CCN1CCN(Cc2ccc(Nc3ncc(F)c(-c4cc(F)c5nc(C)n(C(C)C)c5c4)n3)nc2)CC1 yielded a pIC50 (second compound 0.01 µM) of 6.76, a pIC50 (second compound 0.0316 µM) of 6.84 and a pIC50 (second compound 0.1 µM) of 7.01. The pIC50 (second compound 0.316 µM) was 7.42, the pIC50 (second compound 1 µM) was > 8.02 and the viability, T/C [31] was 75.9%. The viability, T/C [32] was 103%, the viability, T/C [33] was 113% and the viability, T/C [34] was 7.99%. The viability, T/C (second compound 0.01 µM, first compound 0.949 µM) was 6.01%, the viability, T/C (second compound 0.01 µM, first compound 3 µM) was 7.44% and the viability, T/C [35] was 63.5%. The viability, T/C [36] was 71.5%, the viability, T/C [37] was 94.4% and the viability, T/C [38] was 4.86%. The viability, T/C (second compound 0.0316 µM, first compound 0.949 µM) was 4.92%, the viability, T/C (second compound 0.0316 µM, first compound 3 µM) was 7.51% and the viability, T/C [39] was 69.1%. It also gave a viability, T/C [40] of 73.4%, a viability, T/C [41] of 51.5% and a viability, T/C [42] of 3.51%. For the same molecule, the viability, T/C (second compound 0.1 µM, first compound 0.949 µM) was 6%, the viability, T/C (second compound 0.1 µM, first compound 3 µM) was 7.79% and the viability, T/C [43] was 55.9%. It also gave a viability, T/C [44] of 54.3%, a viability, T/C [45] of 30.5% and a viability, T/C [46] of 4.21%. It also gave a viability, T/C (second compound 0.316 µM, first compound 0.949 µM) of 5.66%, a viability, T/C (second compound 0.316 µM, first compound 3 µM) of 7.81% and a viability, T/C [47] of 44.7%. The viability, T/C [48] was 36.5%, the viability, T/C [49] was 22.7% and the viability, T/C [50] was 4.97%. It also gave a viability, T/C (second compound 1 µM, first compound 0.949 µM) of 7.15% and a viability, T/C (second compound 1 µM, first compound 3 µM) of 8.41%.
Cn1nccc1Nc1nccc(-c2ccn(C(CO)c3ccc(Cl)c(F)c3)c(=O)c2)n1 (stereo not given) + CCN1CCN(Cc2ccc(Nc3ncc(F)c(-c4cc(F)c5nc(C)n(C(C)C)c5c4)n3)nc2)CC1 was tested, and the pIC50 (second compound 0.01 µM) was < 5.00, the pIC50 (second compound 0.0316 µM) was < 5.00 and the pIC50 (second compound 0.1 µM) was < 5.00. For the same molecule, the pIC50 (second compound 0.316 µM) was < 5.00, the pIC50 (second compound 1 µM) was < 5.00 and the viability, T/C [1] was 87.1%. The viability, T/C [2] was 78.3%, the viability, T/C [3] was 97.1% and the viability, T/C [4] was 114%. It also gave a viability, T/C [5] of 127%, a viability, T/C [6] of 93.8% and a viability, T/C [7] of 59.1%. It also gave a viability, T/C [8] of 58%, a viability, T/C [9] of 66.1% and a viability, T/C [10] of 76.6%. For the same molecule, the viability, T/C [11] was 115%, the viability, T/C [12] was 39.8% and the viability, T/C [13] was 54.4%. It also gave a viability, T/C [14] of 52.1%, a viability, T/C [15] of 55.6% and a viability, T/C [16] of 64.8%. For the same molecule, the viability, T/C [17] was 87.7%, the viability, T/C [18] was 47.2% and the viability, T/C [19] was 52.4%. The viability, T/C [20] was 68.5%, the viability, T/C [21] was 64.7% and the viability, T/C [22] was 65.4%. It also gave a viability, T/C [23] of 72.9%, a viability, T/C [24] of 54.3% and a viability, T/C [25] of 62.4%. It also gave a viability, T/C [26] of 57.1%, a viability, T/C [27] of 61.2% and a viability, T/C [28] of 63.2%. It also gave a viability, T/C [29] of 92% and a viability, T/C [30] of 51.5%.
